These results are taken from US7067653B2, “Porphyrin Based neuton capture agents for cancer therapy” (The Regents of the University of California, priority 2000, dated 2006).

One data set relates to 9L cells. In words: Dark toxicity assay in rat 9L gliosarcoma cells. The format is cell-based. To be noted: exposure for 24 hours. As to the method:
(§1) In vitro studies using rat 9L gliosarcoma cells, mouse B16 melanoma cells and human U-373MG glioblastoma cells have been performed.
(§2) Human glioblastoma U373 MG and mouse melanoma B16 cells were obtained from ATCC. The rat gliosarcoma line was kindly provided by the UCSF Brain Tumor Research Group. All cells were maintained in log phase monolayer cultures with RPMI 1640 supplemented with 10% fetal bovine and 2 mM glutamine.
(§3) Cells were seeded in 96-well culture plates, allowed to settle and attach for 24–48 hours, and then triplicate wells were exposed to two fold serial dilutions of test compounds at concentrations up to 250 μM. Compounds 4, 6, 10, and the Zn(II) complex of 10 in crystalline form were carefully weighed and dissolved in 100% DMSO to prepare stock solutions; subsequent dilutions were done directly into the culture medium just prior to administration to cells. After short term (2 hours) or long term (24–48 hours) exposure, cells were washed and wells refilled with fresh culture medium. For dark toxicity trials cells were allowed to proliferate for an additional 48–72 hours. For phototoxicity trials, washed cells were irradiated for 10 minutes with broad spectrum (600–700 nm) red light and then returned to an incubator for 48–72 hours.

The next data set relates to U-373 MG cells. Description: Dark toxicity assay in human glioblastoma U-373 MG cells. The format is cell-based. The following applies: exposure for 24 hours. As for the experimental part: as §1, §2, §3
A further data set has as its system tumor. The following applies: drugs currently in BNCT clinical trials; cited from earlier work.
Data set [1] relates to 9L, U-373 MG and B16 cells. In words: Phototoxicity assay, broad spectrum (600–700 nm) red light. The class given is cell-based. To be noted: irradiation with broad spectrum light 10 minutes. As for the experimental part: as §2, §3
As observed for the dark toxicity experiments, the corresponding Zn(II) complex […] was about 20-fold less phototoxic. […] As with dark toxicity, B16 cells were more resistant that the other two cell types.

Data set [2] has as its system human normal keratinocyte line HaCaT. Description: Intracellular localization by confocal fluorescence microscopy, HaCaT cells. The format is cell-based. To be noted: 2 μM, 6 or 24 hours. As for the experimental part:
(§4) Confocal fluorescence microscopy was used to examine the intracellular localization of nido-carboranylporphyrin 4 in live cells. Rat 9L tumor cells and human normal keratinocyte line HaCaT were used in these studies. HaCaT cells were included in these particular experiments because they adhere and spread nicely on glass cover slips, thus facilitating the imaging process. Cells exposed to 2 μM concentration of porphyrin 4 for either 6 or 24 hours were examined at a magnification of 200× for intracellular fluorescence using excitation/emission wavelengths optimized for this type of compound. […] In both cases, 100% of the cells were labeled and the cells exposed to drug for 24 hours were slightly brighter than those exposed for 6 hours. […] No fluorescent signal was detectable in the plasma membranes of isolated individual cells nor in the intercellular junctions of confluent cells.

The test system of the next data set is Rat 9L tumor cells. Description: Intracellular localization by confocal fluorescence microscopy, 9L cells. The format is cell-based. The following applies: 2 μM, 6 or 24 hours. As for the experimental part: as §4

Consider “meso-tetra[3-(1-methyl-nido-carboranyl)methylphenyl]porphyrin tetrapotassium salt [Compound 10]”, for which the IC50 with 9L cells and in the data set with U-373 MG cells was approximately 150 µM throughout.

As for `N[C@@H](Cc1ccc(B(O)O)cc1)C(=O)O` [BPA, L-4-dihydroxy-borylphenylalanine], in the data set with tumor, the “tumor selectivity compared with the carboranylporphyrins (tumor to normal brain ratio)” value was “lower selectivities”.

On to “meso-tetra[4-(1-methyl-nido-carboranyl)methylphenyl]porphyrin tetrapotassium salt [Compound 4]”, for which the IC50 in the data set on 9L cells is approximately 150 µM; in data set [1] (2 hours exposure), 50 µM; in data set [1] (24 hours exposure), 1.5 µM; with U-373 MG cells, approximately 150 µM. Besides, the cells labeled (in data set [2] (HaCaT cells); in the data set on Rat 9L tumor cells (9L cells)) was 100% in each case. The “intracellular localization (fluorescence)” value (in data set [2] (live HaCaT cells); in the data set on Rat 9L tumor cells (live 9L cells)) was “predominantly perinuclear” in each case.

For the compound “disodium mercapto-closo-dodecaborate [BSH]”, the “tumor selectivity compared with the carboranylporphyrins (tumor to normal brain ratio)” value in the data set on tumor is reported as “lower selectivities”.

Broadly, the IC50 is the concentration that inhibits the measured activity by half. Lower therefore signals higher potency.
